Experimental data taken from patent US11231421B2, “Methods of treating multifocal cancer” (NYMOX CORPORATION, priority 2019, dated 2022).
Where no end group is shown, it is not given here.

Assays:
[1] = system: low grade prostate cancer (Gleason grade 6); assay: Clinical study, Example 1: new multifocal with Gleason upgrade in entire prostate; assay type: in vivo, human; conditions: for % Imp.: new multifocal with Gleason upgrade, entire prostate: vs control active surveillance
Experimental: (§1) In a series of clinical studies a total of 146 men with low grade prostate cancer (Gleason grade 6) were treated in the following manner. Patients were randomized and treated with a transrectal intraprostatic single injection of a composition comprising 2.5 mg FT (n=49), or a composition comprising 15 mg FT (n=48), or were subject to control active surveillance (n=49). After the first follow-up biopsy at 45 days post-randomization, 18 patients in the control active surveillance group crossed over to a single administration of a composition in which 10 patients received 2.5 mg FT, and 8 patients received 15 mg FT. Patients were followed for 5 years including biopsies at baseline, 45 days, 18, 36, and 48 months, and urological evaluations with PSA every 6 months. Patients with Gleason grade increase or who elected surgical or radiotherapeutic intervention exited the study and were still included in the data analysis. Percentage of normal biopsies in the baseline focus quadrant and median tumor grade and volume were assessed; progression was measured by clinical and pathological outcomes including Gleason grade, and Gleason grade primary pattern, in the entire prostate sampled as well as for the treated prostate lobe. Interventions associated with Gleason grade increase as well as total incidence for any conventional surgical intervention (e.g., surgery, radiotherapy, and/or chemotherapy) was assessed.

[2] = system: low grade prostate cancer (Gleason grade 6); assay: Clinical study, Example 7: cancer treatment with new multifocal with increased Gleason grade in the hemi-prostate; assay type: in vivo, human; conditions: for % Imp.: cancer treatment with new multifocal with increased Gleason grade in the hemi-prostate: vs control active surveillance
Experimental: as §1, with “assessed. This example evaluated the percentage of patients who had conventional cancer treatment (e.g., surgery, radiotherapy, and/or chemotherapy), and who and who had multifocal prostate cancer in the lobe (or hemi-prostate) in which the foci were initially treated with Gleason upgrade (cancer treatment with new multifocal with increased Gleason grade in the hemi-prostate).” for “assessed.”

[3] = system: low grade prostate cancer (Gleason grade 6); assay: Clinical study, Example 3: hemi-prostate multifocal cancer with Gleason upgrade; assay type: in vivo, human; conditions: for % Imp.: hemi-prostate multifocal cancer with Gleason upgrade: vs control active surveillance
Experimental: as §1

[4] = system: low grade prostate cancer (Gleason grade 6); assay: Clinical study, Example 4: hemi-prostate multifocal cancer with increase in Gleason primary pattern; assay type: in vivo, human; conditions: for % Imp.: hemi-prostate multifocal cancer with increase in Gleason primary pattern: vs control active surveillance
Experimental: as §1

[5] = system: prostate glandular epithelial cells; assay: In vitro tissue culture genetic array and cell effects; assay type: cell-based
Text: (§2) Use of FT is a preferred embodiment. FT is a new molecular entity which in vitro stimulates caspase pathways (activation of caspases 7, 8, and 10, caspase recruitment domains 6, 11, and 14, and DIABLO), tumor necrosis factor pathways (activation of TNF1, TNFSF6, TNFSF8, TNFSF9, CD70 ligands, and TNFRSF19L, TNFRSF25, TRAF2, TRAF3, TRAF4, TRAF6 receptors), and BCL pathways (activation of BIK, HRK, BCL2L10 and BCL3) in prostate glandular epithelial cells, based on tissue culture genetic array data. […] The apoptotic process leads to typical ultrastructural progressive changes of membranous disruption and swelling, progressively deepening nuclear invaginations with eventual membranous bleb formations and cell death and fragmentation into apoptotic bodies.

injected areas = assay: Histology of injected areas after treatment; assay type: in vivo; conditions: up to several weeks after treatment
Text: as §2

[6] = FT 2.5 mg, <=18 mos from treatment
[7] = FT 2.5 mg, <=36 mos from treatment
[8] = FT 2.5 mg, <=48 mos from treatment
[9] = FT 15 mg, <=18 mos from treatment
[10] = FT 15 mg, <=36 mos from treatment
[11] = FT 15 mg, <=48 mos from treatment
[12] = Pooled FT (2.5 mg and 15 mg), <=18 mos from treatment
[13] = Pooled FT (2.5 mg and 15 mg), <=18 mos
[14] = Pooled FT (2.5 mg and 15 mg), <=36 mos from treatment
[15] = Pooled FT (2.5 mg and 15 mg), <=36 mos
[16] = Pooled FT (2.5 mg and 15 mg), <=48 mos from treatment
[17] = Pooled FT (2.5 mg and 15 mg), <=48 mos
[18] = in vitro, tissue culture genetic array data

fexapotide triflutate (IDQQVLSRIKLEIKRCL; also: trifluoroacetate salt) [FT]
percentage of patients: new multifocal with Gleason upgrade, entire prostate [1, 6]: 13.5% | % Imp.: new multifocal with Gleason upgrade, entire prostate ([1]; FT 2.5 mg, <=18 mos): 51.4% | percentage of patients: new multifocal with Gleason upgrade, entire prostate [1, 7]: 23.1% | % Imp.: new multifocal with Gleason upgrade, entire prostate ([1]; FT 2.5 mg, <=36 mos): 47.2% | percentage of patients: new multifocal with Gleason upgrade, entire prostate [1, 8]: 50% | % Imp.: new multifocal with Gleason upgrade, entire prostate ([1]; FT 2.5 mg, <=48 mos): 12.4% | percentage of patients: new multifocal with Gleason upgrade, entire prostate [1, 9]: 5.7 (p = 0.025) % | % Imp.: new multifocal with Gleason upgrade, entire prostate ([1]; FT 15 mg, <=18 mos): 79.5% | percentage of patients: new multifocal with Gleason upgrade, entire prostate [1, 10]: 9.1 (p = 0.13) % | % Imp.: new multifocal with Gleason upgrade, entire prostate ([1]; FT 15 mg, <=36 mos): 79.2% | percentage of patients: new multifocal with Gleason upgrade, entire prostate [1, 11]: 20 (p = 0.039) % | % Imp.: new multifocal with Gleason upgrade, entire prostate ([1]; FT 15 mg, <=48 mos): 65% | percentage of patients: new multifocal with Gleason upgrade, entire prostate [1, 12]: 9.7 (p = 0.044) % | % Imp.: new multifocal with Gleason upgrade, entire prostate [1, 13]: 65.1% | percentage of patients: new multifocal with Gleason upgrade, entire prostate [1, 14]: 16.7 (P = 0.027) % | % Imp.: new multifocal with Gleason upgrade, entire prostate [1, 15]: 61.9% | percentage of patients: new multifocal with Gleason upgrade, entire prostate [1, 16]: 35.5% | % Imp.: new multifocal with Gleason upgrade, entire prostate [1, 17]: 37.8% | percentage of patients: cancer treatment with new multifocal with increased Gleason grade in the hemi-prostate [2, 6]: 4.9% | % Imp.: cancer treatment with new multifocal with increased Gleason grade in the hemi-prostate ([2]; FT 2.5 mg, <=18 mos): 69% | percentage of patients: cancer treatment with new multifocal with increased Gleason grade in the hemi-prostate [2, 7]: 10% | % Imp.: cancer treatment with new multifocal with increased Gleason grade in the hemi-prostate ([2]; FT 2.5 mg, <=36 mos): 57.4% | percentage of patients: cancer treatment with new multifocal with increased Gleason grade in the hemi-prostate [2, 8]: 17.4% | % Imp.: cancer treatment with new multifocal with increased Gleason grade in the hemi-prostate ([2]; FT 2.5 mg, <=48 mos): 44.4% | percentage of patients: cancer treatment with new multifocal with increased Gleason grade in the hemi-prostate [2, 9]: 5.1% | % Imp.: cancer treatment with new multifocal with increased Gleason grade in the hemi-prostate ([2]; FT 15 mg, <=18 mos): 67.7% | percentage of patients: cancer treatment with new multifocal with increased Gleason grade in the hemi-prostate [2, 10]: 7.1% | % Imp.: cancer treatment with new multifocal with increased Gleason grade in the hemi-prostate ([2]; FT 15 mg, <=36 mos): 69.8% | percentage of patients: cancer treatment with new multifocal with increased Gleason grade in the hemi-prostate [2, 11]: 8.3% | % Imp.: cancer treatment with new multifocal with increased Gleason grade in the hemi-prostate ([2]; FT 15 mg, <=48 mos): 73.5% | percentage of patients: cancer treatment with new multifocal with increased Gleason grade in the hemi-prostate [2, 12]: 5% | % Imp.: cancer treatment with new multifocal with increased Gleason grade in the hemi-prostate [2, 13]: 68.4% | percentage of patients: cancer treatment with new multifocal with increased Gleason grade in the hemi-prostate [2, 14]: 8.6% | % Imp.: cancer treatment with new multifocal with increased Gleason grade in the hemi-prostate [2, 15]: 63.4% | percentage of patients: cancer treatment with new multifocal with increased Gleason grade in the hemi-prostate [2, 16]: 12.8% | % Imp.: cancer treatment with new multifocal with increased Gleason grade in the hemi-prostate [2, 17]: 59.1% | percentage of patients: hemi-prostate multifocal cancer with Gleason upgrade [3, 6]: 8.6% | % Imp.: hemi-prostate multifocal cancer with Gleason upgrade ([3]; FT 2.5 mg, <=18 mos): 54.26% | percentage of patients: hemi-prostate multifocal cancer with Gleason upgrade [3, 7]: 16.7% | % Imp.: hemi-prostate multifocal cancer with Gleason upgrade ([3]; FT 2.5 mg, <=36 mos): 53.2% | percentage of patients: hemi-prostate multifocal cancer with Gleason upgrade [3, 8]: 42.9% | % Imp.: hemi-prostate multifocal cancer with Gleason upgrade ([3]; FT 2.5 mg, <=48 mos): 5.7% | percentage of patients: hemi-prostate multifocal cancer with Gleason upgrade [3, 9]: 5.7% | % Imp.: hemi-prostate multifocal cancer with Gleason upgrade ([3]; FT 15 mg, <=18 mos): 69.7% | percentage of patients: hemi-prostate multifocal cancer with Gleason upgrade [3, 10]: 9.1 (p = 0.049) % | % Imp.: hemi-prostate multifocal cancer with Gleason upgrade ([3]; FT 15 mg, <=36 mos): 74.5% | percentage of patients: hemi-prostate multifocal cancer with Gleason upgrade [3, 11]: 13.3% | % Imp.: hemi-prostate multifocal cancer with Gleason upgrade ([3]; FT 15 mg, <=48 mos): 70.8% | percentage of patients: hemi-prostate multifocal cancer with Gleason upgrade [3, 12]: 7.1% | % Imp.: hemi-prostate multifocal cancer with Gleason upgrade [3, 13]: 62.2% | percentage of patients: hemi-prostate multifocal cancer with Gleason upgrade [3, 14]: 13.0 (p = 0.0549) % | % Imp.: hemi-prostate multifocal cancer with Gleason upgrade [3, 15]: 63.6% | percentage of patients: hemi-prostate multifocal cancer with Gleason upgrade [3, 16]: 27.6% | % Imp.: hemi-prostate multifocal cancer with Gleason upgrade [3, 17]: 39.3% | percentage of patients: hemi-prostate multifocal cancer with increase in Gleason primary pattern [4, 6]: 0 (p = 0.033) % | % Imp.: hemi-prostate multifocal cancer with increase in Gleason primary pattern ([4]; FT 2.5 mg, <=18 mos): 100% | percentage of patients: hemi-prostate multifocal cancer with increase in Gleason primary pattern [4, 7]: 0 (p = 0.018) % | % Imp.: hemi-prostate multifocal cancer with increase in Gleason primary pattern ([4]; FT 2.5 mg, <=36 mos): 100% | percentage of patients: hemi-prostate multifocal cancer with increase in Gleason primary pattern [4, 8]: 0 (p = 0.037) % | % Imp.: hemi-prostate multifocal cancer with increase in Gleason primary pattern ([4]; FT 2.5 mg, <=48 mos): 100% | percentage of patients: hemi-prostate multifocal cancer with increase in Gleason primary pattern [4, 9]: 2.9% | % Imp.: hemi-prostate multifocal cancer with increase in Gleason primary pattern ([4]; FT 15 mg, <=18 mos): 76.8% | percentage of patients: hemi-prostate multifocal cancer with increase in Gleason primary pattern [4, 10]: 4.5% | % Imp.: hemi-prostate multifocal cancer with increase in Gleason primary pattern ([4]; FT 15 mg, <=36 mos): 79% | percentage of patients: hemi-prostate multifocal cancer with increase in Gleason primary pattern [4, 11]: 6.7% | % Imp.: hemi-prostate multifocal cancer with increase in Gleason primary pattern ([4]; FT 15 mg, <=48 mos): 75.5% | percentage of patients: hemi-prostate multifocal cancer with increase in Gleason primary pattern [4, 12]: 1.4 (p = 0.03) % | % Imp.: hemi-prostate multifocal cancer with increase in Gleason primary pattern [4, 13]: 88.8% | percentage of patients: hemi-prostate multifocal cancer with increase in Gleason primary pattern [4, 14]: 2.2 (p = 0.011) % | % Imp.: hemi-prostate multifocal cancer with increase in Gleason primary pattern [4, 15]: 89.7% | percentage of patients: hemi-prostate multifocal cancer with increase in Gleason primary pattern [4, 16]: 3.4 (p = 0.025) % | % Imp.: hemi-prostate multifocal cancer with increase in Gleason primary pattern [4, 17]: 87.5% | cellular effects [5]: selectively causes loss of cell membrane integrity, mitochondrial metabolic arrest, depletion of RNA, DNA lysis and aggregation, and cell fragmentation and cell loss | BCL pathways (activation of BIK, HRK, BCL2L10 and BCL3) [5, 18]: stimulates | caspase pathways (activation of caspases 7, 8, and 10, caspase recruitment domains 6, 11, and 14, and DIABLO) [5, 18]: stimulates | tumor necrosis factor pathways (activation of TNF1, TNFSF6, TNFSF8, TNFSF9, CD70 ligands, and TNFRSF19L, TNFRSF25, TRAF2, TRAF3, TRAF4, TRAF6 receptors) [5, 18]: stimulates | histological changes in injected areas (injected areas): typical apoptotic changes with positive immunohistochemical staining of markers for apoptosis are found throughout the injected areas
